Where “and” joins values, the source holds several entries; their conditions need not be identical. Equal values may be shown once.
Key:
PA dimer (PA2) = experiment: DEER of singly labeled peptides in solution (dimerization); assay type: binding
Procedure: Lyophilized, spin-labeled peptides were dissolved in Milli-Q water and centrifuged at 4000 rpm for 10 min to remove insoluble aggregates. The soluble fractions were used to prepare stock solutions of 250–500 μM peptide. Labeled peptide concentrations were determined by comparing the area under the curve of the EPR signal against that of standard solutions of 10–285 μM TEMPO. For the EPR measurements in D2O, 200 μL of the stock solution was lyophilized and re-dissolved in D2O. The concentration of the unlabeled peptide stock solutions was determined using the bicinchoninic acid assay (Thermo Fisher Scientific) and ranged from 0.8 to 1.2 mM peptide. […]
Pulse EPR measurements were carried out at the W band (94.9 GHz) on a home-built spectrometer at 25 K.[22]−[24] Echo intensities were measured with a Hahn echo sequence (π/2νobs – τ – πνobs – τ – echo) using π/2 and π pulses of 20–25 ns and 40–50 ns, respectively, and τ = 500 ns. Echo decays were measured under the same conditions with an initial τ value of 500 ns. DEER measurements were recorded using the four-pulse DEER sequence (π/2νobs – τ1 – πνobs – (τ1 + t) – πνpump – (τ2-t) – πνobs – τ2 – echo)[25],[26] with a chirp pump pulse[23] using eight-step phase cycling and monitoring the echo intensity as a function of increasing t. […]

polyU = experiment: DEER of peptides in the presence of polyU; assay type: binding; details: for local concentration of detected spins: from DEER background decay, calibration curve
Procedure: For pulse EPR measurements, 5–6 μL of peptide in D2O with 20% glycerol-d8 was introduced into a quartz capillary of 0.9 mm i.d. and 1.1 mm o.d. and sealed with Critoseal at one end. The samples with polyU (and thus, the potential for coacervates) were flash-frozen in liquid nitrogen after incubating at room temperature for 15–20 min. Samples without polyU were directly inserted into the spectrometer at 25 K.
Pulse EPR measurements were carried out at the W band (94.9 GHz) on a home-built spectrometer at 25 K.[22]−[24] Echo intensities were measured with a Hahn echo sequence (π/2νobs – τ – πνobs – τ – echo) using π/2 and π pulses of 20–25 ns and 40–50 ns, respectively, and τ = 500 ns. Echo decays were measured under the same conditions with an initial τ value of 500 ns. DEER measurements were recorded using the four-pulse DEER sequence (π/2νobs – τ1 – πνobs – (τ1 + t) – πνpump – (τ2-t) – πνobs – τ2 – echo)[25],[26] with a chirp pump pulse[23] using eight-step phase cycling and monitoring the echo intensity as a function of increasing t. The maximum intensity of the nitroxide spectrum was set to 94.9 GHz, the observer pulses were set to 94.85 GHz, and the π/2 and π pulse durations were 35–40 and 70–80 ns. The chirp pump pulse frequency was 94.88–94.98 GHz with a duration of 128 ns. The repetition time was 10 ms. The samples without polyU and a concentration above 50 μM were averaged for 1–5 h. All the samples with a concentration ≤50 μM and all the samples in the presence of polyU were averaged for 6–14 h. The DEER data were analyzed using the DeerAnalysis 2018[27] program with Tikhonov regularization[28] and also verified with DEERNet.[29] For DeerAnalysis, the background was fitted with a homogenous three-dimensional distribution. The calculated distance distributions were obtained from mtsslSuite[30] using maleimide TEMPO (M-TEMPO) as the ligand, and 200 rotamer conformations were generated using clash treatment set to “loose”.
We carried out DEER measurements on the series of samples with 150 μM PA-12 and varying amounts of polyU (Figure 5A). DEER traces were analyzed in terms of several parameters: (i) the modulation depth, Δ, which gives information about the amount of dimers present; (ii) the slope of the background decay, which gives information on the average local concentration of the observed spins;[36],[40] and (iii) the SNR, which indicates how many spins were observed. […] The decrease in the background decay slope and SNR are consistent with the observed reduction in echo intensity (Figure 4A). We therefore conclude that the observed DEER modulation arose from the unbound PA-12 dimers, whereas the polyU-bound PA-12 could not be detected, as discussed in the description of the echo decays. As the polyU concentration increases, the PA-12 concentration in the dispersed phase decreases and therefore the dimer population decreases as well (eq 1), ultimately resulting in the disappearance of the modulation at about 0.5 mg/mL polyU.
We summarized our experimental observations in Figure 5B, where we plot the decrease degree (in %) in the background decay, the echo intensity, and the modulation depth as a function of polyU concentration. For all parameters, the graphs show a similar linear behavior in the high PA/polyU regime below 0.5 mg/mL polyU. […] At 0.5 mg/mL polyU, an inflection point is detected: Above 0.5 mg/mL polyU, population II reaches a plateau and we have a small gain in echo intensity and background decay, but a large gain in modulation depth. From this series of experiments, we conclude that PA bound to polyU has restricted motion and that dimers of PA exist also when bound to polyU within the coacervate. We determined the local concentration of the spins contributing to the DEER traces in the PA/polyU mixtures from a calibration curve generated from the background decay slopes of the DEER data of PA-12 in the absence of polyU (Figure S10D), and the results are given in Table 2. […]

“RIRRASVEELTCVPGIGPRLARRILERLA [PA-12, Precursor-Arg peptide in which position 12 has been modified with a cysteine and attached to an M-TEMPO spin label]” was tested, and the “DEER modulation depth (Δ)” value (PA dimer (PA2); 30 μM, without polyU) was 2%, the “inter-monomer distances upon spin dilution” value (PA dimer (PA2); about 10% spin-labeled peptide, 200 μM total PA) was “inter-monomer distances practically disappear” and the “maximum modulation depth corrected for free PA” value (polyU; 30 μM PA-12, 1 mg/mL polyU, corrected for 40% component I) was 9.5%. For the same sequence, the “DEER modulation depth (Δ) with polyU” value (polyU; 30 μM PA-12, 1 mg/mL polyU, local concentration 25 μM) was 5.7%, the “DEER modulation depth with polyU (in words)” value (polyU; 100 μM PA-12, 2 mg/mL polyU) was “higher modulation depth than the sample with 1 mg/mL polyU” and the “DEER modulation with polyU (in words)” value (polyU; 150 μM PA-12, 0.5 mg/mL polyU) was “modulation could no longer be detected”. The “DEER modulation depth (Δ) with polyU” value (polyU; 150 μM PA-12, 1 mg/mL polyU) was 2%, the “DEER modulation with polyU (in words)” value (polyU; 150 μM PA-12, 1 mg/mL polyU) was “modulation reappeared again” and the “local concentration of detected spins” value (polyU; PA-12 30 μM / polyU 1 mg/mL) was 25 µM and 25 ± 2 µM. For the same sequence, the “local concentration of detected spins” value (polyU; PA-12 100 μM / polyU 1 mg/mL) was 48 ± 4.5 µM, the “local concentration of detected spins” value (polyU; PA-12 100 μM / polyU 2 mg/mL) was 53 ± 5 µM and the “local concentration of detected spins” value (polyU; PA-12 150 μM / polyU 0.1 mg/mL) was 91 ± 8 µM. The “local concentration of detected spins” value (polyU; PA-12 150 μM / polyU 0.2 mg/mL) was 75 ± 7 µM, the “local concentration of detected spins” value (polyU; PA-12 150 μM / polyU 0.35 mg/mL) was 45 ± 4 µM and the “local concentration of detected spins” value (polyU; PA-12 150 μM / polyU 0.5 mg/mL) was 2.3 µM and 2.3 ± 2 µM. For the same sequence, the “local concentration of detected spins” value (polyU; PA-12 150 μM / polyU 1 mg/mL) was 23 µM and 23 ± 2 µM.
